Test systems include A549; EKVX; HCT-15; HL-60; HT-29; Hs-578T; K562; LOX IMVI; MDA-MB-435; Malme-3M; NCI-H226; NCI-H522; OVCAR-4; OVCAR-8; PC-3; SF-295; SK-MEL-2; SK-OV-3; U-251; UO-31.
Test in all cases: NCI-60 cell line screen, 48 h

Data on four compounds can be found in ChEMBL document CHEMBL1201862, “PubChem BioAssay data set” (2004).

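Tested at 5 concentrations; 48 h exposure; 96-well plates; endpoints linearly interpolated, else capped at highest concentration. GI50: concentration for 50% inhibition of growth.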 The source made the active and inactive calls. Rule as the data show it: active = GI50 up to about 1.1 µM and inactive = higher.

For the compound `[N-]=[N+]=Nc1ccccc1C(=O)N1C(=O)c2ccccc2C(=O)N(C(=O)c2ccccc2N=[N+]=[N-])c2ccccc21`, the GI50 in the assay on A549 was 37.1 µM (inactive); in the assay on EKVX, > 100 µM (inactive); in the assay with HCT-15, 54.8 µM; with HL-60, > 10 µM (inactive); in the assay with HT-29 it was 98.6 µM (inactive); in the assay with Hs-578T it was 35.6 µM (inactive). Besides, the GI50 in the assay with K562 was 30.3 µM (inactive); in the assay on LOX IMVI, 19.8 µM (inactive); in the assay with MDA-MB-435, 43.5 µM (inactive); in the assay with Malme-3M, > 100 µM (inactive); in the assay with NCI-H226, > 100 µM (inactive); with NCI-H522, 30.5 µM (inactive). The GI50 with OVCAR-4 is > 100 µM (inactive); in the assay with OVCAR-8, 97.3 µM (inactive); in the assay with PC-3, 21.4 µM (inactive); in the assay on SF-295, 41.9 µM (inactive); in the assay on SK-MEL-2, 37.9 µM (inactive); with SK-OV-3, 31.2 µM (inactive). For the same compound, the GI50 in the assay on U-251 is 40 µM (inactive); with UO-31, > 100 µM (inactive).
Consider `O=C(O)CCN1CCN(CCC(=O)O)CCN(CCC(=O)O)CC1`, for which the GI50 was 69.3 µM (inactive) in the assay with A549; > 100 µM (inactive) in the assay with EKVX; 91.2 µM with HCT-15; 25.5 µM (inactive) in the assay with HL-60; 53.6 µM (inactive) in the assay on HT-29; > 100 µM (inactive) in the assay on Hs-578T. In addition, the GI50 was 36.3 µM (inactive) with K562; 82.8 µM (inactive) in the assay with LOX IMVI; > 100 µM (inactive) with MDA-MB-435; > 100 µM (inactive) in the assay with Malme-3M; > 100 µM (inactive) in the assay with NCI-H226; > 100 µM (inactive) in the assay on NCI-H522. Also, the GI50 in the assay with OVCAR-4, in the assay with OVCAR-8, in the assay with PC-3, in the assay on SF-295, with SK-MEL-2 and in the assay on SK-OV-3 was > 100 µM (inactive) throughout. For the same compound, the GI50 in the assay with U-251 and in the assay on UO-31 was > 100 µM (inactive) in each case.
On to `[N-]=[N+]=CC(=O)OC1Cc2ccccc2C1`, for which the GI50 in the assay with A549 is 84.3 µM (inactive); in the assay on EKVX, > 100 µM (inactive); with HCT-15 it was > 100 µM; with HL-60 it was > 100 µM (inactive); in the assay with HT-29, > 100 µM (inactive); in the assay on Hs-578T, 42.9 µM (inactive). Also, the GI50 is > 100 µM (inactive) in the assay on K562; > 100 µM (inactive) in the assay on LOX IMVI; > 100 µM (inactive) in the assay with MDA-MB-435; > 100 µM (inactive) in the assay on Malme-3M; > 93.3 µM (inactive) in the assay on NCI-H226; > 71 µM (inactive) with NCI-H522. Further, the GI50 in the assay on OVCAR-4 is > 100 µM (inactive); in the assay with OVCAR-8, > 100 µM (inactive); with PC-3, > 95.7 µM (inactive); in the assay with SF-295, 61.9 µM (inactive); in the assay on SK-MEL-2, > 100 µM (inactive); with SK-OV-3, > 100 µM (inactive). The GI50 is > 100 µM (inactive) in the assay on U-251 and 16.6 µM (inactive) in the assay on UO-31.
For `COc1cccc(O)c1-c1cc(=O)c2c(O)c(OC)c(OC)c(OC)c2o1` [SKULLCAPFLAVONE II], the GI50 in the assay with A549 is 29 µM (inactive); in the assay with EKVX, 32.7 µM (inactive); in the assay on HCT-15 it was 18.5 µM; in the assay on HL-60, 20.4 µM (inactive); in the assay on HT-29, 6.5 µM (inactive); in the assay on Hs-578T, 35.9 µM (inactive). For the same compound, the GI50 is 14.5 µM (inactive) in the assay with K562; 30.2 µM (inactive) in the assay with LOX IMVI; 10.3 µM (inactive) with MDA-MB-435; 36.4 µM (inactive) in the assay on Malme-3M; 47.2 µM (inactive) in the assay with NCI-H226; 22.7 µM (inactive) in the assay on NCI-H522. Further, the GI50 in the assay on OVCAR-4 is 30.3 µM (inactive); with OVCAR-8 it was 30.3 µM (inactive); in the assay on PC-3, 15.3 µM (inactive); in the assay with SF-295, 21.1 µM (inactive); in the assay on SK-MEL-2, 20.9 µM (inactive); with SK-OV-3, 28.4 µM (inactive). Also, the figures for the GI50 with U-251 and in the assay on UO-31 were 31.6 µM (inactive) and 25.2 µM (inactive), respectively.
